The text below walks through data of patent US8710045B2, “Agents for preventing and treating disorders involving modulation of the ryanodine receptors” (The Trustees of Columbia University in the City of New York, priority 2004, dated 2014).

Values joined by “and” are separate entries in the source; they are usually repeats but may differ in a detail not shown here. Equal entries are not always repeated.

One series has as its target T1, PKA-phosphorylated RyR2 (Homo sapiens, UniProt Q92736).
T1 construct: from tissue
Briefly: FKBP12.6 rebinding assay: FKBP12.6 binding to PKA-phosphorylated RyR2 in cardiac SR. The note with it: compound 0.5-1000 nM; Michaelis-Menten curve fitting. As to the method: Samples are centrifuged at 95,000 g for 10 min and the pellets are washed three times in 0.2 ml imidazole buffer. The final pellets are pooled and resuspended in imidazole buffer (final concentration≈10 μg/μl). […] Samples then are centrifuged at 100,000 g for 10 minutes and pellets washed 3 times with imidizol buffer. […] Immunoblots are developed using an anti-FKBP antibody (1:3,000 dilution). […] The intracellular solution contains (in mM): CsCl, 60; CaCl2, 1; EGTA, 11; MgCl2, 1; K2ATP, 5; HEPES, 10; aspartic acid, 50; pH 7.4 (CsOH). Under these conditions, it is expected that the measured current was carried by Ba^2+ primarily through L-type calcium channels which is referred to as ICa,L. Drugs are applied by a local solution changer and reach the cell membrane within 1 s.
The FKBP12.6 rebinding assay described above is used to determine the amount of FKBP12.6 binding to PKA-phosphorylated RyR2 at various concentrations (0.5-1000 nM) of the compounds shown. EC50 values are calculated using Michaelis-Menten curve fitting.
The EC50 values are calculated using Michaelis-Menten curve fitting.

The target of another series is hERG current (Homo sapiens, UniProt Q12809). In words: hERG current, PatchXpress 7000A automatic parallel patch clamp in hERG-transfected HEK 293 cells (Example 6). Particulars: for Individual Data (% Inhibition): single cell. As for the experimental part:
(§1) HEK293 cells were transfected with a plasmid containing the hERG cDNA and a neomycin resistance gene. Stable transfectants were selected by culturing the cells in the presence of G418. The selection pressure was maintained by continued culture in the presence of G418. […] Cells for use in electrophysiology were cultured in 35 mm dishes.
(§2) Onset and steady state block of hERG current was measured using a pulse pattern with fixed amplitudes (conditioning prepulse: +20 mV for 2 seconds; test pulse: −50 mV for 2 seconds) repeated at 10 second intervals, from a holding potential of −80 mV. Peak tail current was measured during the 2 second step to −50 mV. A steady state was maintained for at least 30 seconds before applying the test compound or the positive control. Peak tail current was monitored until a new steady state was achieved. Test compound concentrations were applied cumulatively in ascending order without washout between applications.
(§3) Data acquisition and analysis was performed using the suite of pCLAMP (Vre. 8.2) programs (Axon Instruments, Union City, Calif.). Steady state was defined by the limiting constant rate of change with time (linear time dependence). The steady state before and after application of the test or control compounds was used to calculate the percentage of current inhibited at each concentration. […] Nonlinear squares fits were solved with the Solver add-in for Excel 2000 (Microsoft, Redmond, Wash.).
(§4) Multiple compounds of the invention were tested for their effects on hERG currents. The compounds tested were: ARM036-Na, ARM047, ARM048, ARM050, ARM057, ARM064, ARM074, ARM075, ARM076, ARM077, ARM101, ARM102, ARM103, ARM104, ARM106, ARM107 and ARM26. […] Electrophysiological recordings were made using the PatchXpress 7000 A (Molecular Devices) automatic parallel patch clamp system. […] The duration of exposure to each test concentration was 5 minutes.
For orientation: The hERG channel carries a current that helps repolarise heart muscle cells.

The target of another series is hERG (Homo sapiens, UniProt Q12809). Described as above. Particulars: human, HEK 293 cells stably transfected with hERG cDNA. As to the method: as §1, §2, §3, §4
[1] abbreviates: Individual Data (% Inhibition), single cell.

Sequence of hERG (Q12809 whole entry): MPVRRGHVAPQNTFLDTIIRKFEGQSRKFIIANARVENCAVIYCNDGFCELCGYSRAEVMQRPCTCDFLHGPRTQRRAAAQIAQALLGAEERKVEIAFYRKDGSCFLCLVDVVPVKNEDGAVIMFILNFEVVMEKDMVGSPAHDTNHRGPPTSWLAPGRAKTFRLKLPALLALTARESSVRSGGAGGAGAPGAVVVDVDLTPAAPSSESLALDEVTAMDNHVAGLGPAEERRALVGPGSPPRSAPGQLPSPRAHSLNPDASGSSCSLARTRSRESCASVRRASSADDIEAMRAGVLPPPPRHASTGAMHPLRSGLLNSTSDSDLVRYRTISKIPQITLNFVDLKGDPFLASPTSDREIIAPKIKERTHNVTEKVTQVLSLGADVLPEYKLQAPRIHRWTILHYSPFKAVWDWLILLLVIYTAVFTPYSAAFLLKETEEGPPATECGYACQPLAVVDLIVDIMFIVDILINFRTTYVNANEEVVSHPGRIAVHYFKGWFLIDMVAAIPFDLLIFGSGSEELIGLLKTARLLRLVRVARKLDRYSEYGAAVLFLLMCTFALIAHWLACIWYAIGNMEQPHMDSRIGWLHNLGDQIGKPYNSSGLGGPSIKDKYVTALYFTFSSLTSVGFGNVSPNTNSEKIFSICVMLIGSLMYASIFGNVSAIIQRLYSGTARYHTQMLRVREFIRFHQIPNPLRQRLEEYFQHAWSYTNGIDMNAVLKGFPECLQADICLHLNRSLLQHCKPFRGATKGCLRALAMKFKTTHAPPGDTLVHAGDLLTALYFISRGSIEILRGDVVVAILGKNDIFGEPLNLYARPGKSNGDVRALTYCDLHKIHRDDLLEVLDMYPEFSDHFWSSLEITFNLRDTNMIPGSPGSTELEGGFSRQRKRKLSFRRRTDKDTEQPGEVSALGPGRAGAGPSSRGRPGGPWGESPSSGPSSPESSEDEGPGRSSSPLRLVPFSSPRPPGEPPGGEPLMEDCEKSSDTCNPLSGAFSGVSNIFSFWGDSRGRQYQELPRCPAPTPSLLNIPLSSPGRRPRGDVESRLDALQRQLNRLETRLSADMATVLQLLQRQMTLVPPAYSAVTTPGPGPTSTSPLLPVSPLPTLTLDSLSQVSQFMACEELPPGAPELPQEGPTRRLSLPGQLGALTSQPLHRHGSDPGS
Sequence of hERG current (Q12809 whole entry): as above

As usually defined, the EC50 is the concentration giving half of the maximal effect. Low readings indicate greater potency, high ones weaker potency. In turn, `COc1ccc2c(c1)CN(C(N)=O)CCS2` [S46] gave an EC50 at PKA-phosphorylated RyR2 of 150 nM.

On PKA-phosphorylated RyR2, `COc1ccc2c(c1)CN(C(=O)N1CCC(Cc3ccccc3)CC1)CCS2` [S6] showed a 50% effective concentration (EC50) of 252 nM.

In turn, `COc1ccc2c(c1)CN(C(=O)NCc1ccc3c(c1)CCO3)CCS2` [S52] gave a half-maximal effective concentration (EC50) on PKA-phosphorylated RyR2 of 143 nM.

As to `COc1ccc2c(c1)CN(C(=O)CCN1CCCC[C@H]1c1nnc(Cc3ccccc3)o1)CCS2` [S56], the response on PKA-phosphorylated RyR2 was half-maximal at 95 nM (EC50).

For the compound `COc1ccc2c(c1)CN(C(=O)C(=O)NCCSSCCNC(=O)C(=O)N1CCSc3ccc(OC)cc3C1)CCS2` [S44], the EC50 at PKA-phosphorylated RyR2 amounted to 121 nM.

Compound `COc1ccc2c(c1)CN(C(=O)CCN1CCC(Cc3ccc(N)cc3)CC1)CCS2` [S60] came in with an EC50 on PKA-phosphorylated RyR2 of 68 nM.

Consider `COc1ccc2c(c1)CN(C(=O)CCN1CCC(Cc3ccc(N=[N+]=[N-])cc3)CC1)CCS2` [S62], for which the 50% effective concentration (EC50) on PKA-phosphorylated RyR2 was found to be 45 nM.

Take `COc1ccc2c(c1)CN(C(=O)CC(=O)O)CCS2` [S38]: the midpoint of the response on PKA-phosphorylated RyR2, the EC50, lay at 44 nM.

Consider `COc1ccc2c(c1)CN(C(=O)c1ccc(N=[N+]=[N-])cc1O)CCS2` [S40], for which a half-maximal effect on PKA-phosphorylated RyR2 (EC50) was put at 100 nM.

With `COc1ccc2c(c1)CN(C(=O)CCN1CCC(Cc3ccc(N=[N+]=[N-])cc3N=[N+]=[N-])CC1)CCS2` [S63], the EC50 on PKA-phosphorylated RyR2 amounted to 52 nM.

Consider `COc1ccc2c(c1)CN(C(=O)Nc1ccccc1)CCS2` [S11], for which the half-maximal effective concentration (EC50) on PKA-phosphorylated RyR2 was determined as 181 nM.

For the compound `COc1ccc2c(c1)CN(C(=O)NO)CCS2` [S51], the 50% effective concentration (EC50) at PKA-phosphorylated RyR2 is 175 nM.

At PKA-phosphorylated RyR2, `COc1ccc2c(c1)CN(C(=O)CI)CCS2` [S7] displayed a half-maximal effective concentration (EC50) of 55 nM.

For the compound `COc1ccc2c(c1)CN(C(=O)C(=O)NCCSSCCNC(=O)c1ccc(N=[N+]=[N-])cc1[N+](=O)[O-])CCS2` [S43], on PKA-phosphorylated RyR2, it took 80 nM to reach a half-maximal effect (EC50).

`COc1ccc2c(c1)CN(C(=S)Nc1ccccc1)CCS2` [S12]: on PKA-phosphorylated RyR2, the EC50 amounted to 197 nM.

On PKA-phosphorylated RyR2, `COc1ccc2c(c1)CN(C(=O)NCc1ccccc1)CCS2` [S49] returned a concentration for a half-maximal effect (EC50) of 81 nM.

Compound `COc1ccc2c(c1)CN(S(=O)(=O)c1ccc(C)cc1)CCS2` [S5] yielded an EC50 at PKA-phosphorylated RyR2 of 208 nM.

At PKA-phosphorylated RyR2, `CCCCN(CCCC)CCS(=O)(=O)N1CCSc2ccc(OC)cc2C1` [S2] yielded a concentration for a half-maximal effect (EC50) of 211 nM.

`COc1ccc2c(c1)CN(C(=O)CCN1CCCCC1)CCS2` [S58] returned an EC50 on PKA-phosphorylated RyR2 of 55 nM.

`COc1ccc2c(c1)CN(S(=O)(=O)CCN1CCC(Cc3ccccc3)CC1)CCS2` [S1]: the half-maximal effective concentration (EC50) at PKA-phosphorylated RyR2 is 150 nM.

Regarding `COc1ccc2c(c1)CN(C(=O)CCN1CCC(Cc3ccc(N)cc3N)CC1)CCS2` [S61], at PKA-phosphorylated RyR2, the EC50 was determined as 95 nM.

At PKA-phosphorylated RyR2, `COc1ccc2c(c1)CN(C(=O)NCCc1ccc(O)c(O)c1)CCS2` [S66] yielded an EC50 of 110 nM.

As to `COc1ccc2c(c1)CN(C(=O)NCCc1cnc[nH]1)CCS2` [S67], the EC50 at PKA-phosphorylated RyR2 is 89 nM.

Consider `COc1ccc2c(c1)CN(S(=O)(=O)Nc1cccnc1)CCS2` [S54], for which, on PKA-phosphorylated RyR2, the 50% effective concentration (EC50) worked out at 77 nM.

For orientation: inhibition means the change of the read-out against control, counted positive when it falls. Higher therefore signals a strong effect. As to `O=C(N1CCNCC1)N1CCSc2ccccc2C1` [S103], the “Individual Data (% Inhibition)” value is 12.1% and 1.5% at hERG current (0.01 μM, listed as ARM103, 0.01 µM); 2.4% on hERG current (0.1 μM, listed as ARM103, 0.1 µM); 9.6% on hERG current (1 μM, listed as ARM103, 1 µM); 29.9% at hERG current (10 μM, listed as ARM103, 10 µM). Further, the inhibition at 5 min, 0.1 µM against hERG (setting [1]) was 4.2%; at hERG (Mean % hERG Inhibition), 3.3%. The inhibition at 5 min, 1 µM against hERG (setting [1]) is 5%; on hERG (Mean % hERG Inhibition), 7.3%. Also, the inhibition at 5 min, 10 µM against hERG (Individual Data (% Inhibition), 10 μM, single cell) was 28.4%; against hERG (Mean % hERG Inhibition, 10 μM) it was 29.2%; against hERG (hERG current inhibition at the highest concentration tested, highest concentration tested (10 μM)) it was less than 50%. The compound further showed an inhibition at 5 min, 0.01 µM on hERG (Mean % hERG Inhibition, 0.01 μM) of 6.8%.

In the case of `COc1ccc2c(c1)CN(C(=O)C(=O)NCCSSCCNC(=O)c1ccc(N=[N+]=[N-])cc1O)CCS2` [S45], the EC50 at PKA-phosphorylated RyR2 stood at 80 nM.

In the case of `COc1ccc2c(c1)CN(C(=O)C(=O)[O-])CCS2.[Na+]` [ARM036-Na], the “Mean % hERG Inhibition” value on hERG current (0.01 μM) is reported as 0.2%; on hERG current (0.1 μM), 5.0%; on hERG current (1 μM), 5.5%; on hERG current (10 μM) it was 6.7%. The “Individual Data (% Inhibition)” value on hERG current (0.01 μM) is 0.0% and 0.3%; on hERG current (0.1 μM), 10.0% and 0.0%; on hERG current (1 μM), 2.4% and 8.6%; on hERG current (10 μM) it was 5.1% and 8.2%. The “hERG current inhibition at the highest concentration tested” value at hERG current (highest concentration tested (10 μM)) is recorded as “less than 50%”.
